Measurements as given in patent US9605042B2, “Compositions and methods related to tauopathy” (REGENTS OF THE UNIVERSITY OF MINNESOTA, priority 2012, dated 2017).
Peptide text beside a SMILES is read from it. * marks the point of attachment. Cbz = O=C(OCc1ccccc1)*; CH2F = FC*

Experiments:
[1] = target: T1, caspase-7 (Homo sapiens, UniProt P55210); test: competitive binding assay against caspase-7 (PROMEGA-GLO 2); settings: read-out: K value (caspase-7)
T1 sequence (P55210 24-198 limits assumed): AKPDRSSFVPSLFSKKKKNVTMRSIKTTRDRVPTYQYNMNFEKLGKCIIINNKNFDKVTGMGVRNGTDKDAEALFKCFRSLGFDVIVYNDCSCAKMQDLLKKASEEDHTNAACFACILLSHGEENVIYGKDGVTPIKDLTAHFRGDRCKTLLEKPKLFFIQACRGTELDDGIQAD
T1 sequence (P55210 207-303 limits assumed): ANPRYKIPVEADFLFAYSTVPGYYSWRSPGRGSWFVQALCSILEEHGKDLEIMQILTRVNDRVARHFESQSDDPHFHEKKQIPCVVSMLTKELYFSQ

[2] = tested on: rat hippocampal neurons; test: GFP-tau-containing dendritic spines in neurons coexpressing DsRed and GFP-tau; format: cell-based; settings: rising concentration of caspase-2 inhibitor
Description: FIG. 15. Images of rat hippocampal neurons coexpressing Dsred and GFP-tagged wild-type tau or tau P301 L mutant. Neurons were treated with caspase-2 inhibitor Ac-VDVAD-CHO (SEQ ID NO:36) or caspase-3 inhibitor Ac-DEVD-CHO (SEQ ID NO:37) for 1 day.
FIG. 16. Quantification of total spines and GFP-tau-containing spines in neurons coexpressing DsRed and GFP-tau.
Based on methods described in Hoover et al., Neuron 2010, dissociated rat hippocampal primary neuron cultures were prepared. Briefly, a 25 mm glass coverslip (thickness, 0.08 mm) was glued over a 22 mm hole in the bottom of a 35 mm tissue culture dish using silicone sealant. Dissociated neuronal cultures from rat hippocampi at P1 were prepared. Neurons were plated onto prepared 35 mm tissue culture dishes at a density of 1×10^6 cells per dish. The age of cultured neurons was counted from the day of plating (1 DIV). Neurons at 7 DIV were transfected using a standard calcium phosphate precipitation method and allowed to grow to maturity (>3 weeks) to be imaged. Neurons were transfected with equivalent concentrations of constructs encoding various tau proteins. The plasmid encoding DsRed was cotransfected with tau constructs to visualize dendritic spines. Recombinant tau protein or TCP35 protein (10 μM) was directly added to culture medium 1 hour before imaging to stimulate neuronal cultures. […]

[3] = tested on: rTg4510 neurons; test: Excitatory synaptic transmission (mEPSCs) in rTg4510 neurons; format: cell-based, mouse; settings: 20 μM for two hours
Description: FIG. 17. Excitatory Synaptic Transmission in rTg4510 neurons treated with caspase-2 inhibitor. (A) Mean mEPSC amplitudes of rTg4510 neurons (−/− and +/+) treated with 20 μM caspase-2 inhibitor (Ac-VDVAD-CHO; SEQ ID NO:36) for two hours. […] Caspase-2 inhibitor had no effect on rTg4510 (−/−) neurons. (B) Mean mEPSC frequency of rTg4510 neurons (−/− and +/+) treated with 20 μM caspase-2 inhibitor for two hours. Caspase-2 inhibitor had no effect on rTg4510 neurons (−/− or +/+) frequencies.
Miniature excitatory postsynaptic […] (mEPSCs) were recorded at −55 mV in artificial cerebrospinal fluid (aCSF) containing 100 LM AP7 (NMDAR antagonist, Tocris Bioscience, UK), 1 μM TTX (sodium channel blocker, Tocris Bioscience, UK) and 50 μM bicuculline (GABA receptor antagonist, Sigma-Aldrich, St. Louis, Mo.). Electrophysiology experiments were conducted using AXON DIGIDATA 1440A data acquisition system (Molecular Devices, LLC, Sunnyvale, Calif.), AXOPATCH 200B amplifier (Molecular Devices, LLC, Sunnyvale, Calif.), pCLAMP10 software (Molecular Devices. LLC, Sunnyvale, Calif.). Data was analyzed using AxoGraph X software (Berkeley, Calif.).

[4] = tested on: recombinant caspases -1, -2, -3, -6, -7, -8, -9, or -10; test: Caspase cleavage assay of tau proteins (immunoblot with Tau-13); format: biochemical; settings: 50 μM inhibitor, 37° C., 2 hours, tau from three sources
Description: FIG. 5. Caspase-2 cleaves tau in vitro, producing a 35 kDa fragment. Recombinant caspases -1, -2, -3, -6, -7, -8, -9, or -10 were incubated at 37° C. for 2 hours with tau proteins derived from three different sources. […] Caspases-1 and -8 may cleave tau proteins near the N-terminus and remove Tau-13 mAb epitopes, preventing detection of proteolytic products. Arrows denote the 35 kDa fragment, and arrowheads denote the tau fragment truncated at D421.
Tau proteins (200 ng immunoprecipitates from rTg[tauP301L]4510 or rTg[tauWT]21221 brain lysates, or 1 μl synthetic proteins generated with TNT T7 Quick Coupled Transcription/Translation System [Promega Corp., Madison, Wis.]) were diluted in assay buffer (20 mM HEPES pH 7.2, 10 mM DTT, 1 mM EDTA, 0.1% CHAPS) to a final volume of 50 μl. One unit of recombinant caspase was added to the reactions in the presence or absence of 50 μM z-VAD-fmk (Calbiochem, EMD Biochemicals, San Diego, Calif.). The reactions were incubated at 37° C. for […] and stopped by adding Laemmli sample buffer (62.5 mM Tris-HCl [pH 6.8], 25% glycerol, 2% SDS, and 0.01% bromophenol blue).

[5] = target: T2, recombinant caspase-2 (Homo sapiens, UniProt P42575); test: Screening assay: caspase-2-mediated cleavage of Asp314 peptide substrate (LabChip); format: biochemical; settings: substrate coincubated with recombinant caspase-2 and inhibitor, fluorescence by LabChip
T2 construct: made in house
T2 sequence (P42575 170-325 limits assumed): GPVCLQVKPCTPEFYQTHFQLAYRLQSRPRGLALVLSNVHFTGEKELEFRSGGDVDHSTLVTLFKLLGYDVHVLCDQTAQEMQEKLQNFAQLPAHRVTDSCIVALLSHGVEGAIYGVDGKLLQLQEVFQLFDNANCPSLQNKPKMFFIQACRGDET
T2 sequence (P42575 348-452 limits assumed): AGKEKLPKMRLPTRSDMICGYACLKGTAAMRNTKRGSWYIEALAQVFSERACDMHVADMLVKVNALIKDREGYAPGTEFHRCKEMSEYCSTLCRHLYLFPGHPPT
Description: FIG. 10. Caspase-2-mediated cleavage of Asp314 peptide substrate. Synthetic peptide substrate FITC-AHX-GSVQIVYKPVDLSKVTS-COOH (SEQ ID NO:4) was designed based on amino acids 304-320 of tau protein that encompasses Asp314 cleavage site. The peptide substrate was cleaved by coincubating with recombinant caspase-2 and was separated from cleavage product by using LabChip drug discovery system. The fluorescence emitted by FITC group was monitored to measure peptide quantity.
FIG. 11. Caspase inhibitor blocks caspase-2-mediated cleavage of Asp314 peptide substrate. Synthetic peptide substrate was coincubated with recombinant caspase-2 in the presence of general caspase inhibitor z-VAD-fmk. The fluorescence of the substrate peptide was measured by using LabChip drug discovery system.
Unless otherwise stated, chemicals were purchased from Sigma-Aldrich (St. Louis, Mo.). Caspase-2 was made in-house; reference Caspase-2 inhibitor Z-VAD-FMK was purchased from BD Pharmingen (San Diego, Calif.). […]
Plates were screened in a LabChip 3000 (Caliper Life Sciences Inc., Hopkinton, Mass.) with temperature and relative humidity set to 20° C. and 50%. A 12-sipper chip sampled contents from each well and measured the fluorescent intensity of the substrate and product peaks. […] Data were analyzed using Caliper's HTS Well Analyzer software.

`CC(=O)N[C@@H](Cc1ccc(O)cc1)C(=O)N[C@@H](CCCCN)C(=O)N1CCC[C@H]1C(=O)N[C@H](C(=O)N[C@H](C=O)CC(=O)O)C(C)C` [SEQ ID NO:1, Ac-YKPVD-CHO] (Ac-YKPVD-aldehyde) was tested, and the Ki [1] was > 100 µM.

In the case of Ac-VDVAD-CHO (Ac-VDVAD-aldehyde), the “number of spines with tau” value [2] is reported as “decreases”, the “mean mEPSC amplitude, rTg4510 (−/−) neurons” value [3] is reported as “no effect” and the “mean mEPSC frequency, rTg4510 neurons (−/− or +/+)” value [3] is reported as “no effect”. The “mean amplitude of AMPA mEPSCs, rTg4510 (+/+) neurons” value ([3]; compared to vehicle) was “significantly increased”.

“benzyloxycarbonyl-Val-Ala-Asp-fluoromcthylketone (Cbz-Val-Ala-Asp-CH2F) [z-VAD-fmk]” was tested, and the “cleavage of tau proteins by recombinant caspases” value [4] was “blocked all cleavage” and the “caspase-2-mediated cleavage of Asp314 peptide substrate” value [5] was “blocks”.
